Measurements: the NIST ThermoML archive (doi:10.1016/j.jct.2006.12.012)

Assay: xn = mol fraction of the nth substance listed
Settings: 101 kPa, Liquid

C[S+](C)[O-] [dimethyl sulfoxide] + O
Settings	mass density, 298.15 K [kg/m3]	mass density, 303.15 K [kg/m3]	mass density, 308.15 K [kg/m3]	mass density, 313.15 K [kg/m3]	mass density, 318.15 K [kg/m3]	viscosity, 298.15 K [mPa·s]	viscosity, 303.15 K [mPa·s]	viscosity, 308.15 K [mPa·s]	viscosity, 313.15 K [mPa·s]	viscosity, 318.15 K [mPa·s]
x1 = 0.0238	1009.5	1007.8	1005.89	1003.79	1001.51	1.033	0.9386	0.8541	0.7751	0.6982
x1 = 0.0489	1021.56	1019.59	1017.38	1015.03	1012.48	1.258	1.148	1.041	0.9371	0.8322
x1 = 0.0796	1034.64	1032.3	1029.76	1027.04	1024.2	1.597	1.454	1.309	1.165	1.02
x1 = 0.1183	1048.91	1046.26	1043.35	1040.22	1036.98	2.067	1.872	1.671	1.471	1.269
x1 = 0.1587	1061.32	1058.32	1055.11	1051.58	1047.91	2.549	2.295	2.036	1.778	1.519
x1 = 0.2036	1072.5	1069.04	1065.5	1061.82	1057.83	3.017	2.704	2.389	2.075	1.761
x1 = 0.2379	1079.21	1075.61	1071.77	1067.99	1063.81	3.301	2.954	2.604	2.258	1.911
x1 = 0.2768	1085.26	1081.43	1077.51	1073.27	1069.16	3.537	3.162	2.786	2.413	2.04
x1 = 0.3074	1088.96	1085.02	1080.99	1076.81	1072.4	3.656	3.269	2.881	2.496	2.11
x1 = 0.3335	1091.44	1087.45	1083.41	1079.21	1074.68	3.714	3.322	2.93	2.54	2.149
x1 = 0.3638	1093.61	1089.68	1085.47	1081.11	1076.63	3.735	3.344	2.953	2.562	2.172
x1 = 0.3906	1095.11	1091.09	1086.84	1082.43	1077.78	3.717	3.331	2.946	2.56	2.175
x1 = 0.4412	1097.04	1092.88	1088.48	1084.05	1079.52	3.606	3.241	2.876	2.508	2.142
x1 = 0.5193	1098.34	1094.01	1089.48	1085.1	1080.42	3.312	2.992	2.671	2.348	2.025
x1 = 0.5677	1098.66	1094.24	1089.61	1085.12	1080.33	3.102	2.81	2.519	2.227	1.934
x1 = 0.6195	1098.86	1094.29	1089.61	1085.01	1080.01	2.883	2.62	2.355	2.097	1.835
x1 = 0.6813	1098.85	1094.13	1089.3	1084.66	1079.61	2.656	2.421	2.183	1.958	1.727
x1 = 0.7595	1098.49	1093.75	1088.81	1083.92	1078.92	2.432	2.225	2.009	1.818	1.616
x1 = 0.8095	1098.02	1093.29	1088.4	1083.63	1078.58	2.32	2.129	1.926	1.749	1.559
x1 = 0.8856	1097.3	1092.53	1087.58	1082.75	1077.68	2.175	2.006	1.818	1.659	1.486
x1 = 0.9407	1096.83	1091.95	1086.95	1082.04	1076.93	2.08	1.92	1.746	1.599	1.438
x1 = 0.9781	1096.41	1091.56	1086.54	1081.71	1076.53	2.024	1.863	1.697	1.558	1.409
x1 = 1	1096.29	1091.44	1086.41	1081.59	1076.46	1.996	1.836	1.669	1.535	1.393
